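The compound was tested at five concentrations on cells cultured in 96-well plates, with a 48-hour exposure period. At the GI50, growth is halved. TGI marks complete inhibition of growth.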
Legend:
Test in all cases: NCI tumour cell line growth inhibition, 48 h
ACHN renal = test system: ACHN renal
UACC-62 melanoma = test system: UACC-62 melanoma
SN12C renal = test system: SN12C renal
KM12 colon = test system: KM12 colon
NCI/ADR-RES ovarian = test system: NCI/ADR-RES ovarian
TK-10 renal = test system: TK-10 renal
OVCAR-4 ovarian = test system: OVCAR-4 ovarian
SF-295 CNS = test system: SF-295 CNS
HT29 colon = test system: HT29 colon
K-562 leukemia = test system: K-562 leukemia
U251 CNS = test system: U251 CNS
HCT-116 colon = test system: HCT-116 colon
MCF7 breast = test system: MCF7 breast
PC-3 prostate = test system: PC-3 prostate
A549 NSCLC = test system: A549 NSCLC
SF-539 CNS = test system: SF-539 CNS
HOP-62 NSCLC = test system: HOP-62 NSCLC
SNB-75 CNS = test system: SNB-75 CNS
OVCAR-8 ovarian = test system: OVCAR-8 ovarian
NCI-H460 lung = test system: NCI-H460 lung
MDA-MB-231 breast = test system: MDA-MB-231 breast
CCRF-CEM leukemia = test system: CCRF-CEM leukemia
SK-MEL-28 melanoma = test system: SK-MEL-28 melanoma
HL-60(TB) leukemia = test system: HL-60(TB) leukemia
NCI-H23 lung = test system: NCI-H23 lung
MDA-MB-468 breast = test system: MDA-MB-468 breast
CAKI-1 renal = test system: CAKI-1 renal
OVCAR-5 ovarian = test system: OVCAR-5 ovarian
SW-620 colon = test system: SW-620 colon
HS 578T breast = test system: HS 578T breast
MALME-3M melanoma = test system: MALME-3M melanoma
NCI-H522 lung = test system: NCI-H522 lung
OVCAR-3 ovarian = test system: OVCAR-3 ovarian
HCT-15 colon = test system: HCT-15 colon
SK-MEL-2 melanoma = test system: SK-MEL-2 melanoma
COLO 205 colon = test system: COLO 205 colon
IGROV1 ovarian = test system: IGROV1 ovarian
EKVX NSCLC = test system: EKVX NSCLC
HCC-2998 colon = test system: HCC-2998 colon
786-0 renal = test system: 786-0 renal
MOLT-4 leukemia = test system: MOLT-4 leukemia
SK-MEL-5 melanoma = test system: SK-MEL-5 melanoma
NCI-H226 lung = test system: NCI-H226 lung
BT-549 breast = test system: BT-549 breast
DU-145 prostate = test system: DU-145 prostate
T-47D breast = test system: T-47D breast
MDA-MB-435 = test system: MDA-MB-435
SF-268 CNS = test system: SF-268 CNS
HOP-92 NSCLC = test system: HOP-92 NSCLC
RPMI-8226 leukemia = test system: RPMI-8226 leukemia
SNB-19 CNS = test system: SNB-19 CNS
UO-31 renal = test system: UO-31 renal
A498 renal = test system: A498 renal
SR leukemia = test system: SR leukemia
SK-OV-3 ovarian = test system: SK-OV-3 ovarian
UACC-257 melanoma = test system: UACC-257 melanoma
LOX IMVI melanoma = test system: LOX IMVI melanoma
M14 melanoma = test system: M14 melanoma

COc1cc(/C=C/C(=O)c2ccc(C)cc2)ccc1Oc1nc(Nc2ccc(F)cc2)nc(N(C)C)n1
GI50 (ACHN renal): 9.58 µM
TGI (ACHN renal): 30.7 µM
GI50 (UACC-62 melanoma): 10.1 µM
TGI (UACC-62 melanoma): 42.8 µM
GI50 (SN12C renal): 3.89 µM
TGI (SN12C renal): 20.3 µM
GI50 (KM12 colon): 19.3 µM
TGI (KM12 colon): > 100 µM
GI50 (NCI/ADR-RES ovarian): 5.97 µM
TGI (NCI/ADR-RES ovarian): 27.5 µM
GI50 (TK-10 renal): 18.2 µM
TGI (TK-10 renal): > 100 µM
GI50 (OVCAR-4 ovarian): 7.94 µM
TGI (OVCAR-4 ovarian): 74.5 µM
GI50 (SF-295 CNS): 8.61 µM
TGI (SF-295 CNS): 44.3 µM
GI50 (HT29 colon): 8.15 µM
TGI (HT29 colon): 37.5 µM
GI50 (K-562 leukemia): 4.2 µM
TGI (K-562 leukemia): > 100 µM
GI50 (U251 CNS): 3.32 µM
TGI (U251 CNS): 28.8 µM
GI50 (HCT-116 colon): 2.28 µM
TGI (HCT-116 colon): 5.85 µM
GI50 (MCF7 breast): 3.57 µM
TGI (MCF7 breast): 20.2 µM
GI50 (PC-3 prostate): 8.86 µM
TGI (PC-3 prostate): > 100 µM
GI50 (A549 NSCLC): 45.8 µM
TGI (A549 NSCLC): > 100 µM
GI50 (SF-539 CNS): 7.64 µM
TGI (SF-539 CNS): 20.1 µM
GI50 (HOP-62 NSCLC): 32.2 µM
TGI (HOP-62 NSCLC): > 100 µM
GI50 (SNB-75 CNS): 15.4 µM
TGI (SNB-75 CNS): > 100 µM
GI50 (OVCAR-8 ovarian): 7.19 µM
TGI (OVCAR-8 ovarian): 82.2 µM
GI50 (NCI-H460 lung): 12.1 µM
TGI (NCI-H460 lung): 42.8 µM
GI50 (MDA-MB-231 breast): 5.24 µM
TGI (MDA-MB-231 breast): 18.7 µM
GI50 (CCRF-CEM leukemia): 3.92 µM
TGI (CCRF-CEM leukemia): > 100 µM
GI50 (SK-MEL-28 melanoma): 12.3 µM
TGI (SK-MEL-28 melanoma): 31.3 µM
GI50 (HL-60(TB) leukemia): 19.1 µM
TGI (HL-60(TB) leukemia): > 100 µM
GI50 (NCI-H23 lung): 5.52 µM
TGI (NCI-H23 lung): 27.7 µM
GI50 (MDA-MB-468 breast): 4.64 µM
TGI (MDA-MB-468 breast): 31.8 µM
GI50 (CAKI-1 renal): 6.43 µM
TGI (CAKI-1 renal): > 100 µM
GI50 (OVCAR-5 ovarian): 16.5 µM
TGI (OVCAR-5 ovarian): 68 µM
GI50 (SW-620 colon): 2.36 µM
TGI (SW-620 colon): 5.75 µM
GI50 (HS 578T breast): 7.24 µM
TGI (HS 578T breast): 89.5 µM
GI50 (MALME-3M melanoma): 15.4 µM
TGI (MALME-3M melanoma): 33.3 µM
GI50 (NCI-H522 lung): 9.76 µM
TGI (NCI-H522 lung): 53.2 µM
GI50 (OVCAR-3 ovarian): 13 µM
TGI (OVCAR-3 ovarian): > 100 µM
GI50 (HCT-15 colon): 4.73 µM
TGI (HCT-15 colon): 16.8 µM
GI50 (SK-MEL-2 melanoma): 8.83 µM
TGI (SK-MEL-2 melanoma): 67.4 µM
GI50 (COLO 205 colon): 41.7 µM
TGI (COLO 205 colon): > 100 µM
GI50 (IGROV1 ovarian): 13.8 µM
TGI (IGROV1 ovarian): 36.9 µM
GI50 (EKVX NSCLC): 6.71 µM
TGI (EKVX NSCLC): > 100 µM
GI50 (HCC-2998 colon): 20.5 µM
TGI (HCC-2998 colon): 73.4 µM
GI50 (786-0 renal): 13.3 µM
TGI (786-0 renal): 53.6 µM
GI50 (MOLT-4 leukemia): 2.8 µM
TGI (MOLT-4 leukemia): 27.7 µM
GI50 (SK-MEL-5 melanoma): 5.14 µM
TGI (SK-MEL-5 melanoma): 21.7 µM
GI50 (NCI-H226 lung): 5.22 µM
TGI (NCI-H226 lung): 19.6 µM
GI50 (BT-549 breast): 6.27 µM
TGI (BT-549 breast): 26.8 µM
GI50 (DU-145 prostate): 25.8 µM
TGI (DU-145 prostate): > 100 µM
GI50 (T-47D breast): 3.57 µM
TGI (T-47D breast): > 100 µM
GI50 (MDA-MB-435): 11.4 µM
TGI (MDA-MB-435): 28.4 µM
GI50 (SF-268 CNS): 13.9 µM
TGI (SF-268 CNS): > 100 µM
GI50 (HOP-92 NSCLC): 4.57 µM
TGI (HOP-92 NSCLC): 57.3 µM
GI50 (RPMI-8226 leukemia): 3 µM
TGI (RPMI-8226 leukemia): > 100 µM
GI50 (SNB-19 CNS): 11.1 µM
TGI (SNB-19 CNS): 27.3 µM
GI50 (UO-31 renal): 4.2 µM
TGI (UO-31 renal): 44.1 µM
GI50 (A498 renal): 41.8 µM
TGI (A498 renal): > 100 µM
GI50 (SR leukemia): 3.25 µM
TGI (SR leukemia): 70.6 µM
GI50 (SK-OV-3 ovarian): 48.9 µM
TGI (SK-OV-3 ovarian): > 100 µM
GI50 (UACC-257 melanoma): 8.76 µM
TGI (UACC-257 melanoma): > 100 µM
GI50 (LOX IMVI melanoma): 1.84 µM
TGI (LOX IMVI melanoma): 3.51 µM
GI50 (M14 melanoma): 14.7 µM
TGI (M14 melanoma): 54.3 µM

Source: PubChem BioAssay (NCI)
